Laboratory results as given in publication PMC6273446, “Preliminary LC-MS Based Screening for Inhibitors of Plasmodium falciparum Thioredoxin Reductase (PfTrxR) among a Set of Antimalarials from the Malaria Box” (Molecules, 2016).
Where two headings read alike, the source gives them in different places.

Columns and labels:
[1] = test system: P. falciparum 3D7; conditions: read-out: Pf(3D7) EC50, cited from earlier work
[2] = target: T1, Plasmodium falciparum thioredoxin reductase (PfTrxR) (Plasmodium falciparum, UniProt P61076); test: biochemical; assay type: biochemical; conditions: for IC50: cytosolic PfTrxR (PfTrxR 1 isoform), titrated 50 to 0.07 µM; for Hill slope of dose response curve against PfTrxR: Figure 2
T1 sequence (P61076 1-541 isoform P61076-2): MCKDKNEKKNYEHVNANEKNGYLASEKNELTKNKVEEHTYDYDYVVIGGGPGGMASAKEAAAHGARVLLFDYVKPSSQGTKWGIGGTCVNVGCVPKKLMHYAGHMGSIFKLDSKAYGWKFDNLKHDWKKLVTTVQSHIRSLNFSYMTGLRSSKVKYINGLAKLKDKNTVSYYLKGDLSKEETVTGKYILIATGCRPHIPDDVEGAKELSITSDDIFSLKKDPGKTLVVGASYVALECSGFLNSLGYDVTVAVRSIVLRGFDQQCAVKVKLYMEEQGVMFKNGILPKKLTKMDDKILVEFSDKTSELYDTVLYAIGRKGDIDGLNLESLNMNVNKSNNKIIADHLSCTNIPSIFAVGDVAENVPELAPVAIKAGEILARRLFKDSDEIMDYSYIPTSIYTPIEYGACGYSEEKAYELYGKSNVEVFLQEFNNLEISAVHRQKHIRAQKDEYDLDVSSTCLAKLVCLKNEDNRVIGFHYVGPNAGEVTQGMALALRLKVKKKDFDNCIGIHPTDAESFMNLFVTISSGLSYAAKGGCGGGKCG

[3] = test system: MRC-5 cells (human fetal lung cells); conditions: cited from earlier work
[4] = chloroquine sensitive, sulfadoxine resistant strain, MMV database ref 10
[5] = read-out: MRC-5 Cells IC50, human fetal lung cells, cytotoxicity, MMV database ref 10

Question: With `C[C@@H]1CC[C@H]2[C@@H](C)C(=O)O[C@@H]3O[C@@]4(C)CC[C@@H]1[C@]32OO4` [Artemisinin, reference compound] as the molecule, how does the EC50 [1, 4] read?
Answer: 0.0207 µM

Question: For `O=C1C(O)=C([C@H]2CC[C@H](c3ccc(Cl)cc3)CC2)C(=O)c2ccccc21` [Atovaquone, reference compound], which IC50 [2] is on record?
Answer: > 10 µM

Question: And the EC50 [1]?
Answer: 0.00024 µM

Question: Which EC50 [1, 4] does the source give for `CCN(CC)CCCC(C)Nc1ccnc2cc(Cl)ccc12` (centres unmarked) [Chloroquine, reference compound] here?
Answer: 0.0273 µM

Question: Which IC50 [3] does the source give for `N.N.[Cl][Pt][Cl]` [Cisplatin, reference compound] here?
Answer: 19.6 µM

Question: Which “Hill slope of dose response curve against PfTrxR” value (from here on “Hill slope of dose response curve”) [2] does the source give for `CCc1c(C)c(=N)c2ccccc2n1C` [Compound 1, 2-ethyl-1,3-dimethylquinolin-4-imine;hydroiodide] here?
Answer: 1.1420

Question: What about the IC50 [2] of the same molecule?
Answer: 3.5 µM

Question: What about the EC50 [1, 4] of the same molecule?
Answer: 0.378 µM

Question: With `COc1ccccc1NC1=C(N2CCCCC2)C(=O)c2ccccc2C1=O` [Compound 2, 2-(2-methoxyanilino)-3-piperidin-1-ylnaphthalene-1,4-dione] as the molecule, how does the “Hill slope of dose response curve” value [2] read?
Answer: 0.6031

Question: And the IC50 [2]?
Answer: 0.9 µM

Question: What about the EC50 [1, 4] of the same molecule?
Answer: 0.0053 µM

Question: What about the IC50 [3, 5] of the same molecule?
Answer: 68.7 µM

Question: Which results are given for `CCOc1cc2c(cc1OCC)C(c1cc(OC)c(O)cc1Cl)NCC2` (centres unmarked) [Compound 3, 5-chloro-4-(6,7-diethoxy-1,2,3,4-tetrahydroisoquinolin-1-yl)-2-methoxyphenol]?
Answer: Hill slope of dose response curve against PfTrxR [2]: 0.8022; IC50 [2]: 6.6 µM; EC50 [1, 4]: 0.37 µM; IC50 [3, 5]: 85.4 µM

Question: Which “Hill slope of dose response curve” value [2] does the source give for `COc1ccc(-c2c(C)nn3c(N)c(C#N)cnc23)cc1OC` [Compound 4, 7-amino-3-(3,4-dimethoxyphenyl)-2-methylpyrazolo[1,5-a]pyrimidine-6-carbonitrile] here?
Answer: 2.0020

Question: What about the EC50 [1, 4] of the same molecule?
Answer: 0.477 µM

Question: And the IC50 [3, 5]?
Answer: > 100 µM

Question: With `CCCc1c(CC)c(=N)c2ccccc2n1C` [Compound 5, 3-ethyl-1-methyl-2-propylquinolin-4-imine;hydron;iodide] as the molecule, how does the “Hill slope of dose response curve” value [2] read?
Answer: 1.1510

Question: And the IC50 [2]?
Answer: 7.5 µM

Question: And the EC50 [1, 4]?
Answer: 0.242 µM

Question: And the IC50 [3, 5]?
Answer: 71.2 µM
